# Laboratory results taken from patent US20240315990A1, “Adelmidrol For Use In Diseases Characterized By Insufficient Agonism Of PPAR-GAMMA Receptor” (Epitech Group S.P.A., priority 2016, published 2024).
# Target: T1, PPAR-gamma receptor (Rattus norvegicus, UniProt O88275)
# T1 construct: from tissue; host or cells: live rat (in vivo, paw edema model)
# T1 sequence (O88275 1-505): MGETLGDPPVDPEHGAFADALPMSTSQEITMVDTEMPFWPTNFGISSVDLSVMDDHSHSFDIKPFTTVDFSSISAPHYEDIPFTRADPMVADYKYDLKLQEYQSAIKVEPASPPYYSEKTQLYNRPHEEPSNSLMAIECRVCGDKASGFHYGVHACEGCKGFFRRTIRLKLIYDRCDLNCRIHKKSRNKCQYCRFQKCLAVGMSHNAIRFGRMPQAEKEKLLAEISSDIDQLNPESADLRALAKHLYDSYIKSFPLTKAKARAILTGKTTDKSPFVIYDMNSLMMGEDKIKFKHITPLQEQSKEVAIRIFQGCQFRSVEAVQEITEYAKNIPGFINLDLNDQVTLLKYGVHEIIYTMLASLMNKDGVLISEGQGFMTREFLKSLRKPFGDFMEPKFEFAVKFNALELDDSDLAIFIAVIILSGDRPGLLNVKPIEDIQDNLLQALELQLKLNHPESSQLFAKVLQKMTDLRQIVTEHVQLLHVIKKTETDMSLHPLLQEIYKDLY
# Assay: carrageenan-induced rat paw edema with PPAR-gamma antagonist GW9662, residence time of the paw on the hot plate
# Type: in vivo
# Conditions: GW9662 1 mg/kg i.p. 30 min before CAR, Adelmidrol 10 mg/kg i.p.
# Description: The experimental model of carrageenan-induced rat paw edema is as shown above. In this experiment, the effect was assessed by measuring the residence time of the animal's paw on the hot plate, thus obtaining percentage data with respect to the control treated with carrageenan alone.
# The rats (10 animals per group) were divided into the following experimental groups: • CAR+physiological solution; • CAR+GW9662 (1 mg/kg)+Adelmidrol (10 mg/kg); GW9662 was administered i.p. 30 min before injecting CAR and Adelmidrol (i.p.) when injecting CAR; • CAR+Adelmidrol (10 mg/kg); Adelmidrol was administered i.p. when injecting CAR.
compound,measurement,value
"O=C(Nc1ccccc1)c1cc([N+](=O)[O-])ccc1Cl [GW9662, reference compound]",effect of pretreatment with PPAR-gamma antagonist on the protective action of Adelmidrol,antagonized the effect of Adelmidrol thus substantially abolishing the protective action thereof
